Measurements published in patent US20130216590A1, “TOPICAL ANTIVIRAL FORMULATIONS FOR PREVENTION OF TRANSMISSION OF HSV-2” (priority 2010, published 2013).
Values after ≈ are worked out from the molar mass of the structure shown. Where two headings read alike, the source gives them in different places.

Legend:
[1] = test system: HSV-2 (G); experiment: Co-infection of TZM-bl cells with HIV-1 and HSV-2: HSV-2-induced cytopathicity; type: cell-based; settings: TZM-bl cultures co-infected with HIV-1(NL4.3) and HSV-2(G)
Method: The TZM-bl cell line is derived from HeLa cells and expresses high levels of CD4, CCR5 and CXCR4. In addition, this cell line is stably transduced with a LTR-driven firefly luciferase and E. coli-galactosidase gene (15). In a 96-well tray, 10,000 TZM-bl cells were seeded on day 1. […] Next, 100 μl of a virus suspension containing either HIV-1 (NL4.3), HSV-2 (G) or both viruses together was administered. Two to three days post infection, HIV-1 infection was monitored based on the determination of luciferase activity. For this means, 100 μl of culture supernatant was removed and 100 μl of Bright-Glo Luciferase Assay Substrate (Promega, Madison, USA) was added. The luminescence signal was measured using the Safire 2 microtiter plate reader (Tecan, Männedorf, Switzerland). A control condition containing only mock-infected cells was also included to measure the background luminescence levels. Three days post infection, HSV-2-induced cytopathicity was recorded microscopically based on giant cell formation.

[2] = test system: HSV-2 wt clinical isolates; experiment: HSV CPE reduction assay, clinical isolates in HEL fibroblast cell cultures; type: cell-based; settings: Human alphaherpesvirus 2, Fibroblast
[3] = test system: HSV-2 strain MS (HSV-2MS); experiment: Human ex vivo tonsillar tissue, HSV DNA release by real-time PCR; type: cell-based
[4] = test system: HSV-2 strain G (HSV-2G); experiment: as above; type: cell-based
Method: For each experimental condition 16 tissue blocks were immersed in 500 μl of a HSV-2 (strain G) suspension for 2 hours at 37° C., washed three times with PBS and then placed on the gelfoam rafts. Tenofovir was added during the infection and replenished at each culture medium change. Herpes simplex viral replication was evaluated by the release of viral DNA into the culture medium as measured by quantitative real-time PCR (17). HIV-1 replication was evaluated by the release of p24 capsid antigen using a bead-based assay (18).

[5] = test system: organotypic raft cultures of keratinocytes; experiment: Toxic effects in organotypic epithelial raft cultures; type: cell-based; settings: highest concentration, 200 μg/ml
Method: (§1) For the preparation of epidermal equivalents, a collagen matrix solution was made with collagen mixed on ice with 10-fold concentrated HAM's F12 media, 10-fold reconstitution buffer and Swiss 3T3 J2 fibroblasts. One milliliter of the collagen matrix solution was poured into the wells of 24-well microtiter plates. After gel equilibration with 1 ml of growth medium overnight at 37° C., 2.5×10^5 PHK cells were seeded on the top of the gels and maintained submerged for 24-48 hours. The collagen rafts were raised and placed onto stainless-steel grids at the interface between air and liquid culture medium. The growth medium was a mixture of ⅓ HAM F12 and ⅔ Dulbecco's modified Eagle's medium, with the same supplements as used for the Keratinocyte-SFM. Epithelial cells were allowed to stratify, the medium being replaced every 2-3 days. For the evaluation of the antiviral effects of the compounds in the raft system, two series of rafts were run in parallel, one for histological examination and the other one for quantification of viral production by a plaque reduction assay. Rafts were infected with 5,000 PFU of HSV-1 (KOS) or […] strains after 10 days post-lifting and then the medium was replaced by medium containing different dilutions of the compounds. The growth medium containing the different concentrations of the compounds was changed two days later and 3 days later (after 15 days of differentiation), one series of rafts was fixed in 10% buffered formalin, embedded in paraffin and stained with hematoxylin and eosin for histological evaluation. Another series of rafts was used to quantify virus production. For that purpose, each raft was frozen in 3 ml phosphate buffer saline (PBS) and thawed to release the virus from the infected epithelium. Supernatants were clarified by centrifugation at 1,800 rpm and titrated by a plaque assay in HEL cell cultures. Virus production in each raft was then calculated. Two rafts were used for each drug concentration to determine the effects of the compounds on virus yield.

[6] = test system: HSV-1 and HSV-2; experiment: HSV cytopathic effect (CPE) reduction assay, laboratory strains, HEL cell monolayers and PHKs; type: cell-based, herpes simplex virus; settings: HEL, read-out: EC50, inhibition of virus-induced cytopathicity
[7] = test system: HSV-1 (KOS); experiment: Organotypic epithelial raft cultures infected with HSV-1; type: cell-based
Method: as §1

[8] = test system: thymidine kinase-deficient HSV-1 clinical isolates; experiment: microbe, parasite or virus in culture; type: cell-based; settings: Human alphaherpesvirus 1, Fibroblast
[9] = test system: HSV-1 wt clinical isolates; experiment: HSV CPE reduction assay, clinical isolates in HEL fibroblast cell cultures; type: cell-based; settings: Human alphaherpesvirus 1, Fibroblast
[10] = test system: HSV-2; experiment: Herpes virus infection of primary monocyte/macrophage (M/M) cell cultures; type: cell-based
Method: Human peripheral blood mononuclear cells (PBMCs) were obtained from the blood of healthy seronegative donors by Ficoll-Hypaque density gradient centrifugation. […] Monocyte/macrophage (M/M) cells were separated by adherence onto plastic. […] African green monkey fibroblastoid kidney (Vero) cells highly sensitive to the cytopathic effect of HSV-2 were grown in RPMI medium supplemented with 10% heat inactivated FCS and were used in infectious virus titration assays.
Macrophage cultures were then infected with HSV-2 (100 CCID50) in the presence of the test compounds. After 2 hrs virus adsorption, the cultures were extensively washed to remove any residual virus particles. Fresh culture medium and compounds, at the indicated concentrations, were then added to the cultures. […] Appropriate positive (infected but not treated M/M) and mock-infected negative (uninfected and untreated M/M) controls were run for each experiment as well. All assays were performed in triplicate. […] Therefore, the potential inhibitory effect of the compounds on the replication of HSV-2 was evaluated 6 days after infection. The amount of infectious virus in the supernatants was determined by a classical limited dilution assay on Vero cell cultures. The titers of produced virus were calculated according to the Reed and Muench method and expressed as 50% tissue culture infective dose per ml (TCID50/ml).
The inhibition capacity was expressed in % and calculated considering as value 100 being the virus production in virus-infected untreated cultures.

[11] = Human alphaherpesvirus 2, read-out: EC50, suppression of replication

Question: What does the source list for `C[C@H](Cn1cnc2c(N)ncnc21)OCP(=O)(O)O` [tenofovir, (R)-9-(2-phosphonylmethoxypropyl)adenine]?
Answer: drug concentration that prevented HSV-2 infection [1]: ~60 µg/mL; EC50 ([2]; read-out: mean EC50): ≥ 157 µg/mL; EC50 ([2]; read-out: range of EC50): ≥ 125 µg/mL; reduction of replication compared to infected donor matched-untreated tissue ([3]; 66 μg/ml, HSV-2MS): 89±2%; release of viral DNA in culture medium ([3]; 66 μg/ml, day 9 post infection, IQR 5.7-6.1, untreated 7.3): 5.8 log10 DNA copies/ml; EC50 [3, 11]: 19 µg/mL (≈ 66.2 µM); reduction of replication compared to infected donor matched-untreated tissue ([4]; 66 μg/ml, HSV-2G): 94±7%; release of viral DNA in culture medium ([4]; 66 μg/ml, day 9 post infection, IQR 3.6-6.1, untreated 7.6): 5.2 log10 DNA copies/ml; EC50 [4, 11]: 14 µg/mL (≈ 48.7 µM); toxic effects (increase in number of dead cells or alteration of differentiation) [5]: No toxic effects; EC50 [6]: 100 to 200 µg/mL (≈ 348 to 696 µM); protection of the epithelium from HSV-1-induced cytopathic effect ([7]; 20 μg/ml): full destruction; protection of the epithelium from HSV-1-induced cytopathic effect ([7]; 50 μg/ml): partial protection; reduction in virus yield ([7]; HSV-1, 50 μg/ml): 0.81 logs; log reduction in virus production (PFU) per raft ([7]; HSV-1, 200 μg/ml): 2.6 log; concentration giving complete protection from virus-induced cytopathic effect ([7]; reference HSV-1 laboratory strain): 200 µg/mL; EC50 ([8]; read-out: mean EC50): ≥ 166 µg/mL; EC50 ([8]; read-out: range of EC50): ≥ 117 µg/mL; EC50 ([9]; read-out: mean EC50): 130 µg/mL (≈ 453 µM); EC50 ([9]; read-out: range of EC50): 114 to 160 µg/mL (≈ 397 to 557 µM); CPE ([10]; 1 μg/ml or 0.2 μg/ml, day 6): 70-80%; virus titer in supernatants ([10]; 1 μg/ml or 0.2 μg/ml, day 6): 2.5×10^5 TCID50/ml; visible CPE ([10]; 5 μg/ml, day 6): 30%; visible CPE ([10]; 20 μg/ml, day 6): ~5%; virus titers in the culture supernatants versus untreated controls ([10]; 20 and 5 μg/ml, day 6): more than one log lower; virus replication ([10]; 500 and 100 μg/ml, day 6 post virus infection): completely suppressed virus replication
